Assay results from PMC11696576, “Next generation thiazolyl ketone inhibitors of cytosolic phospholipase A2 α for targeted cancer therapy” (Nature Communications, 2025).
Several values for one entry are separate records, joined by “and”; a condition that tells them apart may be missing. Equal values may be shown once.

Assays:
whole blood = assay: eicosanoid release from LPS-stimulated whole blood; format: cell-based, human; parameters: LTB4 / 5-HETE / 11,12-EET / 12-HETE: unit not given here; details: for 15-HETE level, whole blood / PGE2 level, whole blood / TxB2 level, whole blood: individual replicate
From the text: In whole blood, bacterial lipopolysaccharide (LPS) stimulated the release of PGE2, thromboxane B2 (TXB2), and 15-hydroxyeicosatetraenoic acid (HETE). […] The levels of leukotriene B4 (LTB4), 12-HETE, 5-HETE and 11,12-epoxyeicosatrienoic acid (EET) were not affected by LPS stimulation but increased when exogenous AA was included, irrespective of the presence of GK420 (Fig. S1a).
Fig. 3 Ex vivo suppression of eicosanoid production by GK420. a Eicosanoid levels (pmol/mL) in the plasma of whole blood pretreated with vehicle (DMSO), 3, 10 or 30 µM GK420,) 10 µM arachidonyl trifluoromethyl ketone (ATK), or 1 μM indomethacin (Indo) before stimulation with 1 µg/mL LPS for 24 h. […] All box and whisker plots show the mean (center line), stdev (box), and min and max values (whiskers) from 4 biological replicates. P-values were determined using RM-one way ANOVA with Dunnett’s correction for multiple comparisons.
Aliquots of 0.4 mL of heparinized whole blood were mixed with 1.6 mL of serum-free RPMI cultivation medium with- or without indomethacin (# I7378, Sigma-Aldrich), GK420, or arachidonyl trifluoromethyl ketone (ATK) (Cayman #62120), prior to the addition of lipopolysaccharides (LPS) (1 μg/mL) to activate the cPLA2α enzyme (LPS was from E. coli 026:B6 γ-irradiated, #L2654, Sigma-Aldrich). Exogenous arachidonic acid (5–10 µM) (#3555, Sigma-Aldrich) was added after 23.5 h, for the final 30 mins of the 24 h stimulation. Following treatment (24 h, 37 °C, 5% CO2), the diluted blood was centrifuged (5992 × g for 10 min at 4 °C) to isolate the plasma from the cell fraction. Plasma samples were stored at −80 °C until analysis. Samples were analyzed at the Lipid Maps Consortium, UCSD according to the standard methods. 200 µL of sample was subjected to solid phase extraction of the eicosanoids using the StrataX solid phase extraction columns from Phenomenex and analyzed by UHPLC-MS/MS using full standards mix.

CCRF-CEM cells [1] = assay: intracellular ROS, ROS-red staining and flow cytometry, CCRF-CEM; format: cell-based, human; details: CCRF-CEM, 8 µM, 4 h
Procedure: (§1) Data are the mean ± stdev of 3 biological replicates. […] Data are the mean ± stdev of 3 biological replicates.
(§2) Rather, when combined with AVX420, exogenous AA augmented cell death (Fig. 6e). […] The response occurred within 1 h, peaked at 8–12 h, and preceded the loss of cell viability (Fig. S9a, b).
(§3) After treatment, cells were stained with cellular ROS Assay Kit (Cat. No. ab186029; Abcam, Cambridge, United Kingdom) following the manufacturer’s instructions, and ROS-positive cells were quantified by flow cytometry using either the NovoCyte flow cytometer, and Novoexpress Software v1.5.0 from Agilent Technologies (Santa Clara, USA) or the CytoFLEX flow cytometer and CytExpert analysis software v 2.5 from Beckman Coulter (California, United States). An example showing the gating strategy used to assess ROS-Red staining is found in Fig. S9d.
Figure S9. Intracellular ROS accumulation and cell death. a. Time dependency of the in-crease in iROS following treatment with AVX420 in CCRF-CEM cells as measured by ROS-red stain-ing. Data are the mean ±stdev from ≥2 biological replicates b. […]
±stdev of ≥2 biological replicates c. intracellular ROS measurements in CCRF-CEM cells treated with 0.5 µM AVX420 in the presence of 20 µM arachidonic acid (AA) or 5 µM liproxstatin (Lip) for 4 hours. Data are the mean ± stdev of 2 biological replicates. d. […]
analysis of ROS Red staining by flow cytometry. (i) Gating of live cells using FSC-H versus SSC-H.
(ii) Gating based on ROS Deep Red staining under control conditions and after treatment with (iii) […]
(1 picture or pasted object on this page, not shown here)

isolated human PBMCs = assay: eicosanoid release from A23187-stimulated PBMCs (ELISA); format: cell-based; parameters: 6-Keto PGF1a / 12-HETE: unit not given here; details: 5 µM; for LTB4 level, PBMCs / PGE2 level, PBMCs / TxB2 level, PBMCs: A23187, individual replicate
Procedure: In PBMCs, the calcium ionophore A23187 stimulated the release of PGE2, TXB2, LTB4, 6-keto prostaglandin F1α (PGF1α), and 12-HETE.
PBMCs were isolated from buffy coats using Lymphoprep as described by the manufacturer ([…] Technologies, Vancouver, Canada). Red blood cells were lysed and removed using RBC lysis buffer (Roche, Basel, Switzerland) and the remaining cells were resuspended in 10 mL of RPMI-1640 supplemented with 5% FBS. The TC20 automated cell counter (BIO-RAD, Hercules, California, USA) was used to count the number of cells and check the viability by staining with trypan blue (0.4%) (NanoEnTek, Waltham, MA, USA). For experiments, 5 × 10^5 cells were seeded in 0.5 mL in 24 well plates with RPMI medium supplemented with 5% FBS, 0.3 mg/mL glutamine, and 0.1 mg/mL gentamicin. Cells were preincubated with inhibitors for 2 h before incubating with 30 µM Ca^2+ ionophore A23187 for 15 min to activate cPLA2α. After incubation, the supernatant was obtained by centrifugation at 5992 × g for 10 min at 4° and stored at −80 °C until assayed for PGE2, LTB4, TxB2, 6-Keto PGF1α, and 12S-HETE using enzyme-linked immunosorbent assays (ELISAs) (Cayman #514435, Cayman #10009292, Cayman #501020, Cayman #15210, and Enzo Lifesciences #ADI-900-050). After an overnight hybridization, the enzymatic conversion of substrate was read at OD420 nm using a Cytation 5 multimode platereader (Biotek Instruments, Winooski, VT, USA). Standard curves fit using 4-parameter logistic regression in myassays.com were used to calculate eicosanoid concentrations.

CCRF-CEM cells [2] = assay: cell viability, CTG assay, CCRF-CEM; details: for viability signal, raw values: Figure 6e
Procedure: Data are the mean ± stdev of 3 biological replicates. c Viability of healthy T-cells measured by propidium iodide (PI) exclusion. Data are the mean ± stdev of 8 biological replicates for 1–16 µM AVX420, 5 for 32 µM AVX420 and 2 for 0.5 µM Staurosporine (Stau). d Cell viability measured by CTG assay in cells preincubated with 2.5 mM glutathione (GSH) or 2.5 mM N-acetyl cysteine (NAC) for 30 min before addition of 0.5 or 1 µM AVX420, 0.06 µM RSL-3, or 0.06 µM ML-210 for 24 h. Data are the mean ± stdev of 3 biological replicates. P-values were determined by one-way ANOVA with Dunnett’s correction for multiple testing and **** indicates P < 0.0001. e Cell viability measured by CTG assay. CCRF-CEM or Jurkat cells were co-treated with 0.5 µM AVX420 and either arachidonic acid (AA) at concentrations ranging from 1 to 100 µM or a mixture of 9 eicosanoids: 6-keto prostaglandin F1α, Thromboxane B2, prostaglandin F2α, prostaglandin E2, prostaglandin D2, 12(S)-HHTrE, 15(S)-HETE,12(S)-HETE, 5(S)-HETE at a final concentration of 2 ng/mL each (EIC-mix) for 24 h. Data are the mean ± stdev of 3 biological replicates. P-values were determined by two-way ANOVA with Sidak’s correction for multiple comparisons. f Proportion of intracellular ROS-positive cells measured by ROS-red staining and flow cytometry. Cells were treated with indicated concentrations of AVX420 (µM), 1 mM H2O2, 1 µM RSL-3, or 1 µM doxorubicin (dox) for 4 h. Data are the mean ± stdev of 3 biological replicates. g Intracellular ROS measurements in CCRF-CEM cells treated with AVX420 (0.5 µM), AVX002 (8 µM), or AACOCF3 (8 µM) for 4 h.
All cell lines were confirmed to be free of mycoplasma contamination. The cell lines were not authenticated. MV-4-11 were cultured in Iscove’s Modified Dulbecco’s Medium (Sigma, I3390). CCRF-CEM, Jurkat E6.1, and HL-60 cells were cultured in RPMI 1640 Medium RPMI-1640 medium (Sigma, R5886).

Jurkat E6.1 cells [3] = assay: cell viability, CTG assay, Jurkat E6.1; format: cell-based, human; details: for viability signal, raw values: Figure 6e
From the text: as §1
Bjørn Tore Gjertsen (University of Bergen, Norway). […] The cell lines were not authenticated.

Jurkat E6.1 cells [4] = assay: intracellular ROS, ROS-red staining and flow cytometry, Jurkat E6.1; format: cell-based, human; parameters: ROS Negative Cells / ROS Negative Cells (Figure S9 a) / ROS Negative Cells (Figure S9c): unit not given here; details: AA 20 µM; rep1, rep2
Procedure: as §1, §2, §3

`CCCCC/C=C\C/C=C\C/C=C\C/C=C\CCCC(=O)C(F)(F)F` [ATK, arachidonyl trifluoromethyl ketone] was tested, and the 5-HETE (whole blood; 10 uM + LPS + AA) was 62.15 and 48.84 and 43.16 and 63.64, the “11,12-EET” value (whole blood; 10 uM + LPS + AA) was 12.43 and 12.11 and 11.23 and 10.37 and the 12-HETE (whole blood; 10 uM + LPS + AA) was 131.5 and 102.1 and 99.1 and 71.1. For the same compound, the LTB4 (whole blood; 10 uM + LPS + AA) was 0.7 and 0.6 and 0.8 and 0.5, the “15-HETE level, whole blood” value (whole blood; 10 uM + LPS + AA) was 74.26 pmol/mL and 68.85 pmol/mL and 74.36 pmol/mL and 63.52 pmol/mL and the “PGE2 level, whole blood” value (whole blood; 10 uM + LPS + AA) was 16.3 pmol/mL and 19.3 pmol/mL and 11.3 pmol/mL and 11.2 pmol/mL. For the same compound, the “TxB2 level, whole blood” value (whole blood; 10 uM + LPS + AA) was 13.1 pmol/mL and 35.6 pmol/mL and 22.8 pmol/mL and 21.1 pmol/mL, the “15-HETE level, whole blood” value (whole blood; 10 uM + LPS) was 0.26 pmol/mL and 1.13 pmol/mL and 0.31 pmol/mL and 0.48 pmol/mL and the “PGE2 level, whole blood” value (whole blood; 10 uM + LPS) was 0.1 pmol/mL and 2.4 pmol/mL and 0.5 pmol/mL and 1.1 pmol/mL. For the same compound, the “TxB2 level, whole blood” value (whole blood; 10 uM + LPS) was 1.2 pmol/mL and 9.9 pmol/mL and 2.1 pmol/mL and 3.4 pmol/mL and the “intracellular ROS (iROS)” value (CCRF-CEM cells [1]) was “increased iROS”.
In the case of `COc1ccc2c(c1)c(CC(=O)O)c(C)n2C(=O)c1ccc(Cl)cc1` [Indo, indomethacin], the 5-HETE (whole blood; 1 uM + LPS + AA) is reported as 68.97 and 43.93 and 45.12 and 44.17, the “11,12-EET” value (whole blood; 1 uM + LPS + AA) is reported as 9.56 and 11.87 and 10.26 and 11.6 and the 12-HETE (whole blood; 1 uM + LPS + AA) is reported as 64.2 and 109.5 and 89.5 and 60.3. For the same compound, the LTB4 (whole blood; 1 uM + LPS + AA) was 0.4 and 0.7 and 0.5, the “15-HETE level, whole blood” value (whole blood; 1 uM + LPS + AA) was 61.7 pmol/mL and 75.64 pmol/mL and 71.47 pmol/mL and 74.74 pmol/mL and the “PGE2 level, whole blood” value (whole blood; 1 uM + LPS + AA) was 11.3 pmol/mL and 12.8 pmol/mL and 10.1 pmol/mL and 11.1 pmol/mL. For the same compound, the “TxB2 level, whole blood” value (whole blood; 1 uM + LPS + AA) was 1.2 pmol/ml (2×) and 1.6 pmol/ml and 1 pmol/ml, the “15-HETE level, whole blood” value (whole blood; 1 uM + LPS) was 0.16 pmol/mL and 0.77 pmol/mL and 0.18 pmol/mL and 0.15 pmol/mL and the “PGE2 level, whole blood” value (whole blood; 1 uM + LPS) was 0.05 pmol/mL. For the same compound, the “TxB2 level, whole blood” value (whole blood; 1 uM + LPS) was 0.05 pmol/ml (3×) and 0.1 pmol/ml and the “production of PGE2 and TXB2” value (whole blood; whole blood, LPS, in the absence and presence of exogenous free AA) was “suppressed the production”.
With `CC(Cc1ccc(O)c(O)c1)C(C)Cc1ccc(O)c(O)c1` (stereo not shown) [NDGA, nordihydroguaiaretic acid, reference compound] the “LTB4 level, PBMCs” value (isolated human PBMCs) was 125.8 pg/mL and 134 pg/mL and 192.1 pg/mL and 116.5 pg/mL, the “PGE2 level, PBMCs” value (isolated human PBMCs) was 307.5 pg/mL and 191.3 pg/mL and 70.7 pg/mL and 334.8 pg/mL and the “TxB2 level, PBMCs” value (isolated human PBMCs) was 14617 pg/mL and 11007 pg/mL and 1627.4 pg/mL and 14685.3 pg/mL. The “6-Keto PGF1a” value (isolated human PBMCs; A23187 stimulated) was 23.4 and 36.1 and the 12-HETE (isolated human PBMCs; A23187 stimulated) was 69724.1 and 75249.5 and 44247.8.
For `COC(=O)c1ccc([C@@H]2c3[nH]c4ccccc4c3C[C@@H](C(=O)OC)N2C(=O)CCl)cc1` [RSL-3], the “cell viability (Control = 100)” value (CCRF-CEM cells [2]; 0.06 µM, VEH) was 29 and 32 and 36 and the “cell viability (Control = 100)” value (Jurkat E6.1 cells [3]; Jurkat cells, 0.06 µM, VEH) was 40 and 34 and 26.
For `COc1ccc2cc([C@H](C)C(=O)O)ccc2c1` [Naproxen, naproxen, reference compound], the “LTB4 level, PBMCs” value (isolated human PBMCs) was 580.9 pg/mL and 678 pg/mL and 1105.1 pg/mL and 392.2 pg/mL, the “PGE2 level, PBMCs” value (isolated human PBMCs) was 99.6 pg/mL and 53.1 pg/mL and 27.7 pg/mL and 49.6 pg/mL and the “TxB2 level, PBMCs” value (isolated human PBMCs) was 2252.6 pg/mL and 716 pg/mL and 281.3 pg/mL and 1975.1 pg/mL.
With `Cc1ccc(-c2cc(C(F)(F)F)nn2-c2ccc(S(N)(=O)=O)cc2)cc1` [Celecoxib, celecoxib, reference compound] the “LTB4 level, PBMCs” value (isolated human PBMCs) was 120.7 pg/mL and 156.9 pg/mL and 348.2 pg/mL and 111.7 pg/mL, the “PGE2 level, PBMCs” value (isolated human PBMCs) was 146.1 pg/mL and 36.8 pg/mL and 25.1 pg/mL and 59.9 pg/mL and the “TxB2 level, PBMCs” value (isolated human PBMCs) was 2358.3 pg/mL and 690.2 pg/mL and 212.9 pg/mL and 1753.1 pg/mL.
In the case of `CCCCC/C=C\C/C=C\C/C=C\C/C=C\CCCC(=O)O` [AA], the “ROS Negative Cells (Figure S9c)” value (Jurkat E6.1 cells [4]) is reported as 97 and 95, the “ROS Positive Cells (Figure S9c)” value (Jurkat E6.1 cells [4]) is reported as 3 and 5 and the “viability signal, raw values” (CCRF-CEM cells [2]; AA-1, CTRL (no AVX420)) is reported as 846644,033333333 and 824265,666666667 and 673546,5. For the same compound, the “viability signal, raw values” (CCRF-CEM cells [2]; AA-5, CTRL (no AVX420)) was 927085,7 and 753657,333333333 and 655816,5, the “viability signal, raw values” (CCRF-CEM cells [2]; AA-10, CTRL (no AVX420)) was 862846,7 and 802148,333333333 and 667006,5 and the “viability signal, raw values” (CCRF-CEM cells [2]; AA-20, CTRL (no AVX420)) was 903682,366666667 and 709873,666666667 and 638998,5. The “viability signal, raw values” (CCRF-CEM cells [2]; AA-100, CTRL (no AVX420)) was 925589,000333333 and 600588 and 592437,5, the “viability signal, raw values” (Jurkat E6.1 cells [3]; Jurkat E6.1, AA-1, CTRL (no AVX420)) was 945477,333333333 and 910583,466666667 and 794162,5 and the “viability signal, raw values” (Jurkat E6.1 cells [3]; Jurkat E6.1, AA-5, CTRL (no AVX420)) was 896908,333333333 and 842500,133333333 and 777643. For the same compound, the “viability signal, raw values” (Jurkat E6.1 cells [3]; Jurkat E6.1, AA-10, CTRL (no AVX420)) was 858625 and 837920,133333333 and 768078,5 and the “viability signal, raw values” (Jurkat E6.1 cells [3]; Jurkat E6.1, AA-20, CTRL (no AVX420)) was 835050 and 861305,466666667 and 719180.
